{
  "source": "paper PMC5146284",
  "about": "“Molecular imaging with engineered physiology” (Nature Communications, 2016)",
  "key": {"[1]": {"biological_target": "T1, RAMP1/CLR CGRP receptor heterodimer in HEK293FT reporter cells (Homo sapiens, UniProt O60894+Q16602)", "T1 construct": "HA-CALCRL: Human calcitonin receptor-like receptor preceded by the H. influenza; Human receptor-activity modifying protein 1 preceded by the H. influenza; hemagglutinin signal peptide (heterologous, replaces the native one) (N); expressed in transfected cells", "T1 sequence (Q16602 23-461)": "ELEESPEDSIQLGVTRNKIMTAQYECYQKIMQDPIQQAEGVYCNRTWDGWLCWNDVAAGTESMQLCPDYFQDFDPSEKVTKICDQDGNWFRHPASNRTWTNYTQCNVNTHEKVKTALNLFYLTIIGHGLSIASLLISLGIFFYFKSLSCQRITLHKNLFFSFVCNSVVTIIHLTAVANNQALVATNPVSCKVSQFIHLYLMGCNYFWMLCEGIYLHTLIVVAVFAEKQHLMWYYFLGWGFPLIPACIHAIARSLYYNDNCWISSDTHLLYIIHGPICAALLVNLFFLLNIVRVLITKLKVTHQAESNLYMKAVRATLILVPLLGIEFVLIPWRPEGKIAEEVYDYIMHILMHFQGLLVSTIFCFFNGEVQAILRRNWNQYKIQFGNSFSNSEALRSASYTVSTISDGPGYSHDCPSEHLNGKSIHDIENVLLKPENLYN", "T1 sequence (O60894 27-148)": "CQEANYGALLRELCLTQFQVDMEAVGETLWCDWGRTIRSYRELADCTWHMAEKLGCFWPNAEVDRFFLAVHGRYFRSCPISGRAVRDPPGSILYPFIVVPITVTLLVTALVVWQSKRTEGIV", "experiment": "Luminescent cAMP (GloSensor) cell-based bioassay for CGRP receptor activation", "conditions": "for Log(EC50), Cleaved: after protease: (1) 5 ng/μl human FAP, (2) 0.1 U/μl TEV, (3) 2 pg/μl EK light chain, (4) 23 ng/μl, (5) 11.5 ng/μl human CASP3; for Log(EC50), Cleaved / Log(EC50), Uncleaved: s.e.m. <0.1 (n=7); for Log(EC50), Uncleaved: incubated without protease"}, "caspase-3 (CASP3)": {"test_system": "caspase-3 (CASP3)", "experiment": "Proteolytic cleavage by caspase-3 (SDS-PAGE or MALDI)", "type": "biochemical, human", "conditions": "10 µM sensor, 2 h, 37 °C; SDS-PAGE (sensor 4) or MALDI (sensor 5)", "protocol": "Proteolytic cleavage reactions\nSupplementary Fig. 4. Proteolytic cleavage of candidate sensors and assessment by bioas-say. (a-e) Cleavage reaction products after incubation of 10 µM sensor with or without enzyme for 2 h at 37 °C. (a) MALDI mass spectrum of sensor (1) after incubation with or without FAP […]\n(b) SDS-PAGE analysis of sensor\n(c) SDS-PAGE analysis of sensor (3) after incubation with different concentrations of EK light […]\n(d) SDS-PAGE analysis of sen- […]\nand liberation of free CGRP. (f-k) Dose-response curves of uncleaved and cleaved sensors in […]\n(f) Dose-response curves for Sensors (2-4) at final assay concentrations up to 10 uM (addition of 10 µL of 100 µM solution to 90 µL medium per well in bioassay) show no receptor activation by uncleaved GFP-linker-CGRP-G sensors even at 10-fold higher concentrations than were used in cleavage assays (g-k). (g-k) Dose-response curves for reaction products from (a-e). Error bars in (f-k) denote SD of measurements performed in triplicate.\n(1 picture or pasted object on this page, not shown here)"}, "[2]": {"test_system": "rat brain (thalamus); nNOS", "experiment": "MRI of CGRP response before and after systemic nNOS inhibition with L-NAME", "type": "in vivo, rat (Sprague-Dawley)", "experimental": "(e) Dissociation of CGRP-induced artificial haemodynamic signals from nitric oxide-mediated signalling. Left, haemodynamic responses observed by imaging upon unilateral CGRP injection into the left thalamus, before L-NAME delivery (-LN, top), or into the right thalamus, after 50 mg kg^−1 intravenous L-NAME infusion (+LN, bottom). […] Error bars throughout this figure denote s.e.m. values (n=4).\nHigh resolution T2-weighted anatomical scans of each animal were obtained using a rapid acquisition with relaxation enhancement (RARE) pulse sequence with echo time (TE)=44 ms, recycle time (TR)=2,500 ms, RARE factor=8, spatial resolution=100 × 100 × 500 μm, and matrix size=128 × 128 with seven slices. Haemodynamic contrast image series were acquired using a gradient echo echo planar imaging (EPI) pulse sequence with TE=34 ms, TR=4,000 ms, spatial resolution=300 × 300 × 500 μm, and matrix size=64 × 64 with seven slices. To parallel the optical imaging experiments, 5 min of baseline measurement with 4 s per image were acquired before probe infusion. Following this baseline period, while continuously collecting EPI scans, infusion pumps were remotely turned on to commence intracranial injection (in the parenchymal tissue) of 1 μl aliquots of CGRP or control solutions at the rate of 0.1 μl min^−1 through the cannulae. […]\nMRI data was processed and analysed using the AFNI software package[47]. […]"}, "[3]": {"test_system": "CASP3, in rat brain (thalamus)", "conditions": "for significant haemodynamic activation / voxel correlation with vs without CASP3: 100 nM sensor, BOLD MRI", "experimental": "CASP3 sensor aliquots (100 nM) were injected at 0.1 μl min^−1 for 10 min in the presence or absence of CASP3 enzyme (2.3 ng μl^−1) in paired injections into rat thalamus.\nHigh resolution T2-weighted anatomical scans of each animal were obtained using a rapid acquisition with relaxation enhancement (RARE) pulse sequence with echo time (TE)=44 ms, recycle time (TR)=2,500 ms, RARE factor=8, spatial resolution=100 × 100 × 500 μm, and matrix size=128 × 128 with seven slices. Haemodynamic contrast image series were acquired using a gradient echo echo planar imaging (EPI) pulse sequence with TE=34 ms, TR=4,000 ms, spatial resolution=300 × 300 × 500 μm, and matrix size=64 × 64 with seven slices. To parallel the optical imaging experiments, 5 min of baseline measurement with 4 s per image were acquired before probe infusion. Following this baseline period, while continuously collecting EPI scans, infusion pumps were remotely turned on to commence intracranial injection (in the parenchymal tissue) of 1 μl aliquots of CGRP or control solutions at the rate of 0.1 μl min^−1 through the cannulae. […] For the experiments of Fig. 3d, CGRP-based CASP3 sensors (100 nM) were co-injected simultaneously, either with or without comixed CASP3 enzyme (1.15 ng μl^−1).\nMRI data was processed and analysed using the AFNI software package[47]. The AFNI 3dAllineate command was used to align each animal's EPI data set to the corresponding RARE anatomical image. Each animal's image data were then aligned to a reference MRI rat atlas[48]. To identify voxels with significant increases or decreases in BOLD signal, we used the 3dDeconvolve routines in AFNI to correlate individual or group level voxel-level signal changes with the injection epochs. For correlation analysis, injection epochs were modeled by ‘box car' regressors with a single stimulus block synchronized with the onset and offset of infusion, without delays. […] The cluster size and P value threshold were objectively chosen, based on AFNI's AlphaSim routine, to provide a type I error rate of 5% after correction for multiple comparisons[49][50]; this was appropriate for robust hypothesis testing on individual voxels throughout the entire imaging volume. […] Time courses were obtained by averaging MRI signal over 1.5 × 1.5 mm regions of interest defined around cannula tip locations in individual animals' data sets. The peak percent signal change was determined by comparing signal values during baseline and infusion conditions. Additional statistical analysis was performed in Matlab."}},
  "note": "Where two headings read alike, the source gives them in different places. Positions of bridges follow the written chain, without caps; N, C: chain ends. No end group written: not given here. *: point of attachment. long‑chain biotin = O=C(CCCC[C@@H]1SC[C@@H]2NC(=O)N[C@@H]21)NCCCCCC(=O)*; cfSGFP2 = cysteine-free variant of the GFP",
  "data": [
    {"compound": "CC(C)C[C@H](NC(=O)CNC(=O)[C@H](C)NC(=O)[C@H](CC(C)C)NC(=O)[C@H](CCCNC(=N)N)NC(=O)[C@H](Cc1c[nH]cn1)NC(=O)[C@@H](NC(=O)[C@@H](NC(=O)[C@@H]1CSSC[C@H](NC(=O)[C@H](C)N)C(=O)N[C@@H](CC(=O)O)C(=O)N[C@@H]([C@@H](C)O)C(=O)N[C@@H](C)C(=O)N[C@@H]([C@@H](C)O)C(=O)N1)C(C)C)[C@@H](C)O)C(=O)N[C@@H](CC(C)C)C(=O)N[C@@H](CO)C(=O)N[C@@H](CCCNC(=N)N)C(=O)N[C@@H](CO)C(=O)NCC(=O)NCC(=O)N[C@H](C(=O)N[C@H](C(=O)N[C@@H](CCCCN)C(=O)N[C@@H](CC(N)=O)C(=O)N[C@@H](CC(N)=O)C(=O)N[C@@H](Cc1ccccc1)C(=O)N[C@H](C(=O)N1CCC[C@H]1C(=O)N[C@H](C(=O)N[C@@H](CC(N)=O)C(=O)N[C@H](C(=O)NCC(=O)N[C@@H](CO)C(=O)N[C@@H](CCCCN)C(=O)N[C@@H](C)C(=O)N[C@@H](Cc1ccccc1)C(=O)NCC(=O)O)C(C)C)[C@@H](C)O)C(C)C)C(C)C)C(C)C", "note": "[CGRP-G]", "values": [
      {"measurement": "EC50", "setting": "[1]; C-terminal glycine extension, read-out: 95% CI of EC50 for receptor activation", "value": "2.1 to 3.1", "unit": "nM"},
      {"measurement": "EC50", "setting": "[1]; C-terminal glycine extension, read-out: EC50 for receptor activation", "value": 2.5, "unit": "nM"}
    ]},
    {"compound": "cfSGFP2-DEVD-CGRP-G (cfSGFP2-GGSGDEVDACDTATCVTHRLAGLLSRSGGVVKNNFVPTNVGSKAFG; ends and bridges not checked; also: StrepII tag, position not given here) [Sensor (4), recombinant fusion of cysteine-free GFP, a short linker, caspase-3 site and non-amidated CGRP]", "values": [
      {"measurement": "Log(EC50), Cleaved", "setting": "[1]", "value": "−6.4"},
      {"measurement": "Log(EC50), Uncleaved", "setting": "[1]", "value": "<−5"}
    ]},
    {"compound": "cfSGFP2-DEVD-CGRP-G [Sensor (4), recombinant fusion of cysteine-free GFP, a short linker, caspase-3 site and non-amidated CGRP]", "values": [
      {"measurement": "cleavage by caspase-3", "setting": "caspase-3 (CASP3)", "value": "near-complete"}
    ]},
    {"compound": "COC(=O)[C@@H](N)CCCNC(N)=N[N+](=O)[O-]", "note": "[L-NAME, N-nitro-L-arginine methyl ester]", "values": [
      {"measurement": "average increase in baseline brain MRI signal before CGRP infusion", "setting": "[2]; 50 mg/kg i.v., t-test P=0.11, n=4, not significant", "value": "3.5±2.3", "unit": "%"},
      {"measurement": "increase in baseline MRI signal after L-NAME (review reply)", "setting": "[2]; during first five minutes after L-NAME injection, n=4", "value": "< 5", "unit": "%"}
    ]},
    {"compound": "CC(C)C[C@H](NC(=O)CNC(=O)[C@H](C)NC(=O)[C@H](CC(C)C)NC(=O)[C@H](CCCNC(=N)N)NC(=O)[C@H](Cc1c[nH]cn1)NC(=O)[C@@H](NC(=O)[C@@H](NC(=O)[C@@H]1CSSC[C@H](NC(=O)[C@H](C)NC(=O)[C@@H]2CCCN2C(=O)[C@H](C)N)C(=O)N[C@@H](CC(=O)O)C(=O)N[C@@H]([C@@H](C)O)C(=O)N[C@@H](C)C(=O)N[C@@H]([C@@H](C)O)C(=O)N1)C(C)C)[C@@H](C)O)C(=O)N[C@@H](CC(C)C)C(=O)N[C@@H](CO)C(=O)N[C@@H](CCCNC(=N)N)C(=O)N[C@@H](CO)C(=O)NCC(=O)NCC(=O)N[C@H](C(=O)N[C@H](C(=O)N[C@@H](CCCCN)C(=O)N[C@@H](CC(N)=O)C(=O)N[C@@H](CC(N)=O)C(=O)N[C@@H](Cc1ccccc1)C(=O)N[C@H](C(=O)N1CCC[C@H]1C(=O)N[C@H](C(=O)N[C@@H](CC(N)=O)C(=O)N[C@H](C(=O)NCC(=O)N[C@@H](CO)C(=O)N[C@@H](CCCCN)C(=O)N[C@@H](C)C(=O)N[C@@H](Cc1ccccc1)C(N)=O)C(C)C)[C@@H](C)O)C(C)C)C(C)C)C(C)C", "note": "[Sensor (1)]", "values": [
      {"measurement": "EC50", "setting": "[1]; after FAP cleavage, 95% CI, read-out: CI of EC50 following cleavage", "value": "0.013 to 0.02", "unit": "nM"},
      {"measurement": "EC50", "setting": "[1]; uncleaved FAP sensor, 95% CI, read-out: CI of EC50 before cleavage", "value": "0.112 to 0.116", "unit": "nM"},
      {"measurement": "EC50", "setting": "[1]; uncleaved FAP sensor, read-out: EC50 before cleavage", "value": 0.114, "unit": "nM"}
    ]},
    {"compound": "cfSGFP2-ENLYFQG-CGRP-G (cfSGFP2-GGSGENLYFQGACDTATCVTHRLAGLLSRSGGVVKNNFVPTNVGSKAFG; ends and bridges not checked; also: StrepII tag, position not given here) [Sensor (2), recombinant fusion of cysteine-free GFP, a short linker, TEV protease site and non-amidated CGRP]", "values": [
      {"measurement": "Log(EC50), Cleaved", "setting": "[1]", "value": "−6.0"},
      {"measurement": "Log(EC50), Uncleaved", "setting": "[1]", "value": "<−5"}
    ]},
    {"compound": "(long-chain biotin)-SG-DEVD-CGRP-amide (disulfide) [Sensor (5)]", "values": [
      {"measurement": "protease sensitivity and post-cleavage potency, ranking", "setting": "[1]; comparison of sensors", "value": "optimum protease sensitivity and post-cleavage potency"},
      {"measurement": "cleavage by caspase-3", "setting": "caspase-3 (CASP3)", "value": "complete cleavage"},
      {"measurement": "peak MRI signal change in the absence of CASP3", "setting": "[3]; 100 nM sensor alone, 0.1 μl/min, 10 min, n=4", "value": "1.6±0.5", "unit": "%"},
      {"measurement": "mean MRI peak signal change, sensor/CASP3 co-injection", "setting": "[3]; 100 nM sensor with CASP3, 0.1 μl/min, 10 min, n=4, P=0.02", "value": "7.0±0.9", "unit": "%"},
      {"measurement": "significant haemodynamic activation / voxel correlation with vs without CASP3", "setting": "[3]; corrected t-test P<0.05, listed as CASP3 sensor", "value": "observed in the presence but not the absence of the co-injected protease"},
      {"measurement": "significant haemodynamic activation / voxel correlation with vs without CASP3", "setting": "[3]; corrected t-test P<0.05, listed as CGRP-based molecular imaging probe (5)", "value": "Significant haemodynamic activation can be seen in the presence but not the absence of coadministered 1.15 ng μl^−1 CASP3"}
    ]},
    {"compound": "(long-chain biotin)-SG-DEVD-CGRP-amide (disulfide) ({long‑chain biotin}-SGDEVDACDTATCVTHRLAGLLSRSGGVVKNNFVPTNVGSKAF-NH2; disulfide 8-13) [Sensor (5)]", "values": [
      {"measurement": "EC50", "setting": "[1]; after CASP3 cleavage, 95% CI, read-out: CI of EC50 following cleavage", "value": "0.038 to 0.046", "unit": "nM"},
      {"measurement": "EC50", "setting": "[1]; uncleaved CASP3 sensor, 95% CI, read-out: CI of EC50 before cleavage", "value": "5.2 to 6.4", "unit": "nM"},
      {"measurement": "EC50", "setting": "[1]; uncleaved CASP3 sensor, read-out: EC50 before cleavage", "value": 5.7, "unit": "nM"}
    ]},
    {"compound": "cfSGFP2-DDDDK-CGRP-G (cfSGFP2-GGSGDDDDKACDTATCVTHRLAGLLSRSGGVVKNNFVPTNVGSKAFG; ends and bridges not checked; also: StrepII tag, position not given here) [Sensor (3), recombinant fusion of cysteine-free GFP, a short linker, enterokinase site and non-amidated CGRP]", "values": [
      {"measurement": "Log(EC50), Cleaved", "setting": "[1]", "value": "−6.4"},
      {"measurement": "Log(EC50), Uncleaved", "setting": "[1]", "value": "<−5"}
    ]}
  ]
}
